Assay [1] is described as follows: Prevention of iron-mediated oxidation of ascorbate (ascorbate-mediated reduction of Fe(III)). The following applies: ascorbate 100 μM, FeCl3 30 μM, pH 7.4, ligand/Fe ratios 0-3, 40 min.
Assay [2] can be described thus: Quenching of the ABTS radical cation.
Assay [3] has as its system iron. The following applies: cited from earlier work.
[4] abbreviates: Table 1, A734, six-minute reaction, pH 7.4, 1.25 to 15 μM.
Setting [5] is: Table 3, A734, 6-min reaction, values marked b are the inventors' unpublished results.
Where [6] appears, read: 150 μmol/kg sc, suspension in water, n = 3.
Setting [7] is: 300 μmol/kg po, in 40% Cremophor.
The mark [8] stands for this setting: 150 μmol/kg po (footnote d: dose administered, 300 μmol/kg).

“And” between values parts separate entries of the source, which are not always exact repeats. Equal entries are not always repeated. “Also recorded” adds a separate entry of the source. Where two headings read alike, the source gives them in different places. Marks after values point to notes of the source that are not given here.

In the case of `O=C(O)[C@H]1CSC(c2ccc(O)cc2O)=N1` [4′-(HO)-DADMDFT, 4′-hydroxydesazadesmethyldesferrithiocin], in assay [1], the “effect on ascorbate-mediated reduction of Fe(III) (in words)” value is listed as “significant protection”. Also, the “Slope × 10^3 OD units/μM (ABTS radical cation quenching)” value (shortened to “Slope × 10^3 OD units/μM”) in assay [2] (setting [4]) was −101.6 × 10^3 OD units/μM. The “Slope × 10^3 OD units/μM” value in assay [2] (setting [5]) is −102^b × 10^3 OD units/μM. In addition, in assay [3] (setting [6]), the “% stool (of iron excreted), monkeys” value is 92%; the “% urine (of iron excreted), monkeys” value is listed as 8%; the “efficiency in monkeys (%)” value is 5.6±0.9% and 5.6 ± 0.9^f %. Also, in assay [3] (setting [7]), the “% stool (of iron excreted), monkeys” value is on record as 90%; the “% urine (of iron excreted), monkeys” value is listed as 10%; the “efficiency in monkeys (%)” value was 5.3±1.7% and 5.3 ± 1.7^f %.

`CC(=O)N(O)CCCCCNC(=O)CCC(=O)N(O)CCCCCNC(=O)CCC(=O)N(O)CCCCCN` [DFO, Desferrioxamine B, reference compound]: the “effect on ascorbate-mediated reduction of Fe(III) (in words)” value in assay [1] is given as “inhibited; also recorded: significant inhibition”. For the same compound, in assay [2] (setting [4]), the “Slope × 10^3 OD units/μM” value is −136.8 × 10^3 OD units/μM. In addition, the “Slope × 10^3 OD units/μM” value in assay [2] (setting [5]) is −137^b × 10^3 OD units/μM. In assay [3] (setting [8]), the “% stool (of iron excreted), monkeys” value was 55%; the “% urine (of iron excreted), monkeys” value was 45%; the “efficiency in monkeys (%)” value is 0.1±0.4% and 0.1 ± 0.4^d %. Also, in assay [3] (150 μmol/kg sc, n = 5), the “% stool (of iron excreted), monkeys” value is 45%; the “% urine (of iron excreted), monkeys” value was 55%; the “efficiency in monkeys (%)” value is 5.5±0.9%.
